# Experimental data reported in ChEMBL document CHEMBL5042479, “Synthesis and Characterization of New V1A Antagonist Compounds: The Separation of Four Atropisomeric Stereoisomers” (J Med Chem, 2021).
# Tests used:
# Vasopressin V1a receptor [1] = target: T1, Vasopressin V1a receptor (Homo sapiens, UniProt P37288); assay: Displacement of [3H]-arginine-vasopressin from human V1A receptor expressed in human 1321N1 cell membranes incubated for 60 mins by radioligand binding assay; parameters: species or system Membrane
# Target sequence in this assay (P37288 whole entry): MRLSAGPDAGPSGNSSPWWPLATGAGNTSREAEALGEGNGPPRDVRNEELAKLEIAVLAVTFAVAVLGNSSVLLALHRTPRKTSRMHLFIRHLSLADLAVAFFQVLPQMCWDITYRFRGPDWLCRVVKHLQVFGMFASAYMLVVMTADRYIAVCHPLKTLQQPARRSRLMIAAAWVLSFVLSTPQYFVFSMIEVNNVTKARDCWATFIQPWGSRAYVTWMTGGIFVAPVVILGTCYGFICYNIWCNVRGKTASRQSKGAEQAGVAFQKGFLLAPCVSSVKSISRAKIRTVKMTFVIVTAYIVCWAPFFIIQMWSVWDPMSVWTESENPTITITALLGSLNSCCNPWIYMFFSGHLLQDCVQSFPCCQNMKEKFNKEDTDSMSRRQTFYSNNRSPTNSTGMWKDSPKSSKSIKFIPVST
# Vasopressin V1a receptor [2] = target: T1, Vasopressin V1a receptor; assay: Inhibition of human V1A receptor expressed in human 1321N1 cells assessed as calcium mobilization by fluorescent plate reader; format: functional, cell-based
# Target sequence in this assay (P37288 whole entry): as above
# Vasopressin V2 receptor [3] = target: T2, Vasopressin V2 receptor (Homo sapiens, UniProt P30518); assay: Displacement of [3H]-labelled arginine-vasopressin from human V2 receptor expressed in human 1321N1 cell membranes at 1 uM incubated for 60 mins by radioligand binding assay; details: Membrane
# 1321N1 = assay: Selectivity ratio of Ki for human V2 receptor expressed in human 1321N1 cell membranes to Ki for human V1A receptor expressed in human 1321N1 cell membranes; format: cell-based
# [4] = Intrinsic clearance in human liver microsomes in presence of reduced NADPH
# [5] = Intrinsic clearance in rat liver microsomes in presence of reduced NADPH
# [6] = Intrinsic clearance in mouse liver microsomes in presence of reduced NADPH
# [7] = Apparent permeability across apical to basolateral side in mouse Caco-2 cells; details: human
# [8] = Permeability directional ratio in mouse Caco-2 cells; details: human
# physchem = details: PBS, pH 7.4
# Description: Kinetic solubility of compound in PBS at pH 7.4 incubated for 2 hrs by HPLC-MS analysis
# Vasopressin V1a receptor [9] = target: T1, Vasopressin V1a receptor; assay: Displacement of [3H]-labelled arginine-vasopressin from human V1A receptor expressed in human 1321N1 cell membranes at 5 nM incubated for 60 mins by radioligand binding assay; details: Membrane
# Target sequence in this assay (P37288 whole entry, looked up): as the sequence (P37288 whole entry) above
# Vasopressin V2 receptor [10] = target: T2, Vasopressin V2 receptor; assay: Displacement of [3H]-arginine-vasopressin from human V2 receptor expressed in human 1321N1 cell membranes incubated for 60 mins by radioligand binding assay; parameters: species or system Membrane
# T2 sequence (P30518 whole entry): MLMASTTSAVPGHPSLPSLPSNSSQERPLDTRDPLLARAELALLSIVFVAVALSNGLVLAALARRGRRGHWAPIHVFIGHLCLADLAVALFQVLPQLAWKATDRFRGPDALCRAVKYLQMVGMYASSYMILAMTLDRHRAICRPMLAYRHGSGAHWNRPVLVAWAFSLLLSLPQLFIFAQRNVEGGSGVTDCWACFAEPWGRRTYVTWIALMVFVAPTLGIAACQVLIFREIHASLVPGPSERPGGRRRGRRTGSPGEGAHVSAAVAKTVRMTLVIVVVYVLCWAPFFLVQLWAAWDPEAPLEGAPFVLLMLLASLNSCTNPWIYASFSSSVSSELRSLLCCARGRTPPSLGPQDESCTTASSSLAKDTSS
smiles,measurement,setting,value
Cc1ccc2c(c1)-n1c(nnc1[C@H]1CC[C@H](Oc3ccccn3)CC1)CC(O)C2 (stereo partly specified),Ki,Vasopressin V1a receptor [1],34 nM
same,IC50,Vasopressin V1a receptor [2],390 nM
same,inhibition,Vasopressin V2 receptor [3],3%
Cc1cccc2c1CC(O)Cc1nnc([C@H]3CC[C@H](Oc4ccccn4)CC3)n1-2 (stereo partly specified),Ki,Vasopressin V1a receptor [1],8.8 nM
same,inhibition,Vasopressin V2 receptor [3],-9%
OC1Cc2cc(Cl)ccc2-n2c(nnc2[C@H]2CC[C@H](Oc3ccccn3)CC2)C1 (stereo partly specified),Selectivity ratio,1321N1,1570
same,microsomal CLint,[4],0.4 µL/min/mg
same,microsomal CLint,[5],38 µL/min/mg
same,microsomal CLint,[6],6.3 µL/min/mg
same,Papp A→B,[7],20.3 ×10⁻⁶ cm/s
same,efflux ratio,[8],6.2
same,solubility kinetic at 2 h,physchem,97.5 µM
OC1Cc2ccc(Cl)cc2-n2c(nnc2[C@H]2CC[C@H](Oc3ccccn3)CC2)C1 (stereo partly specified),inhibition,Vasopressin V1a receptor [9],26%
O[C@H]1Cc2cc(Cl)ccc2-n2c(nnc2[C@H]2CC[C@H](Oc3ccccn3)CC2)C1,Ki,Vasopressin V2 receptor [10],900 nM
same,Selectivity ratio,1321N1,3000
same,microsomal CLint,[4],4.1 µL/min/mg
same,microsomal CLint,[5],56.2 µL/min/mg
same,microsomal CLint,[6],6.7 µL/min/mg
same,Papp A→B,[7],20.5 ×10⁻⁶ cm/s
same,efflux ratio,[8],4.7
same,solubility kinetic at 2 h,physchem,98.9 µM
Cc1cccc2c1-n1c(nnc1[C@H]1CC[C@H](Oc3ccccn3)CC1)C[C@@H](O)C2 (atropisomer aR) [listing 1 of 2 here],inhibition,Vasopressin V2 receptor [3],-6%
Cc1cccc2c1-n1c(nnc1[C@H]1CC[C@H](Oc3ccccn3)CC1)C[C@@H](O)C2 (atropisomer aR) [listing 2 of 2 here],Ki,Vasopressin V1a receptor [1],6.3 nM
O[C@@H]1Cc2cc(Cl)ccc2-n2c(nnc2[C@H]2CC[C@H](Oc3ccccn3)CC2)C1,Ki,Vasopressin V2 receptor [10],200 nM
same,Selectivity ratio,1321N1,667
same,microsomal CLint,[4],3.2 µL/min/mg
same,microsomal CLint,[5],16.6 µL/min/mg
same,microsomal CLint,[6],5.1 µL/min/mg
same,Papp A→B,[7],22.5 ×10⁻⁶ cm/s
same,efflux ratio,[8],3.7
same,solubility kinetic at 2 h,physchem,95.1 µM
CN1Cc2cc(Cl)ccc2-n2c(nnc2C2CCN(c3ccccn3)CC2)C1,inhibition,Vasopressin V2 receptor [3],13%
CN(C)CCn1cc(C(=O)N2CCC3(CC2)OCc2ccccc23)c2ccc(Cl)cc21,inhibition,Vasopressin V2 receptor [3],-6%
Cc1cccc2c1-n1c(nnc1[C@H]1CC[C@H](Oc3ccccn3)CC1)C[C@H](O)C2 (atropisomer aS) [listing 1 of 2 here],Ki,Vasopressin V1a receptor [1],146 nM
Cc1cccc2c1-n1c(nnc1[C@H]1CC[C@H](Oc3ccccn3)CC1)C[C@H](O)C2 (atropisomer aS) [listing 2 of 2 here],inhibition,Vasopressin V2 receptor [3],-5%
Cc1cccc2c1-n1c(nnc1[C@H]1CC[C@H](Oc3ccccn3)CC1)C[C@H](O)C2 (atropisomer aR) [listing 1 of 2 here],Ki,Vasopressin V1a receptor [1],11 nM
Cc1cccc2c1-n1c(nnc1[C@H]1CC[C@H](Oc3ccccn3)CC1)C[C@@H](O)C2 (atropisomer aS) [listing 1 of 2 here],inhibition,Vasopressin V2 receptor [3],0%
Cc1cccc2c1-n1c(nnc1[C@H]1CC[C@H](Oc3ccccn3)CC1)C[C@@H](O)C2 (atropisomer aS) [listing 2 of 2 here],Ki,Vasopressin V1a receptor [1],2640 nM
Clc1ccc2c(c1)CCCc1nnc([C@H]3CC[C@H](Oc4ccccn4)CC3)n1-2,CLH,[4],7 µL/min/mg
same,CLH,[5],124 µL/min/mg
same,CLH,[6],94 µL/min/mg
OC1Cc2c(Cl)cccc2-n2c(nnc2[C@H]2CC[C@H](Oc3ccccn3)CC2)C1 (stereo partly specified),Ki,Vasopressin V1a receptor [1],12 nM
Cc1cccc2c1-n1c(nnc1[C@H]1CC[C@H](Oc3ccccn3)CC1)C[C@H](O)C2 (atropisomer aR) [listing 2 of 2 here],inhibition,Vasopressin V2 receptor [3],-3%
Cc1ccc2c(c1)CC(O)Cc1nnc([C@H]3CC[C@H](Oc4ccccn4)CC3)n1-2 (stereo partly specified),Ki,Vasopressin V1a receptor [1],0.4 nM
same,IC50,Vasopressin V1a receptor [2],1.9 nM
same,Ki,Vasopressin V2 receptor [10],1070 nM
